Assay results taken from article PMC10781097, “Chemical Profile and Health-Promoting Activities of Crataegus laciniata (Rosaceae) Flowers” (Plants, 2023).
Each block holds one compound with its values, some of them ahead of it.

Key:
[1] = system: zebrafish embryos; test: Zebrafish embryo pigmentation (whitening effect); format: in vivo, Danio rerio; settings: 30 µg/mL, 72 hpf, control = 100% pigmentation
Protocol: Adult zebrafish specimens (male and female) were maintained in a temperature-controlled aquarium (28.5 °C) with light-dark cycles and regularly fed with Artemia salina larvae. After natural deposition, the laid eggs were collected and incubated at 28.5 °C. After 24 h, all the eggs were observed under a stereomicroscope (SMZ-171 Series, Motic, Hong Kong, China) to select the fertilized ones. The vitality test and whitening effect were evaluated in vivo on zebrafish embryos according to the following method. […] Control embryos were incubated with embryo water (negative control). After 48 h of incubation at 28 °C (72 hpf), the effects of the treatment were observed using a stereomicroscope (SMZ-171 Series, Motic) equipped with a digital camera (Moticam® 5 plus) for image acquisition. The abnormal phenotypes and mortality of each treated group were documented. […] The images were converted to gray scale, and the pixel measurements analyzer program was used to count the area of the zebrafish image pigmentation. The quantification of pigmentation was expressed as a percentage change compared to the control group, which was considered to be 100%. All experiments were performed in compliance with the European Directive 2010/63/EU and following the ethical guidelines described by the National Institute of Health Guide for the Care and Use of Laboratory Animals.

[2] = system: α-glucosidase; settings: cited from earlier work
[3] = system: TYR; design: method as in PMID 30458808, PMID 26059994; settings: cited from earlier work
[4] = TEAC test (ABTS radical scavenging activity); settings: mean ± SD, n = 3
Protocol: The free radical scavenging activities of extracts were also determined via the TEAC test using ABTS radical following the method reported by Wang et al.. […] Trolox was used as a positive control. The percentage of ABTS free radical scavenging activity was calculated using the following formula: Inhibition(%)=(C−S)/C∗100 Data were expressed in terms of the decrease in ABTS scavenging activity by 50%.

[5] = system: α-amylase; design: method as in PMID 36115306; settings: cited from earlier work
[6] = DPPH radical scavenging activity; settings: mean ± SD, n = 3
Protocol: DPPH scavenging activity was measured using the method of Xiong et al., albeit with minor modifications. […] After shaking, the mixture was stored in the dark for 30 min at room temperature, and, finally, the absorbance was measured at 517 nm. Ascorbic acid served as the positive control. The percentage of DPPH scavenging activity was calculated using the following formula: Inhibition(%)=(C-S)/C∗100 where C = the absorbance of the control, and S = the absorbance of the extract.

Compound: NC(=S)Nc1ccccc1 [1-Phenyl-2-thiourea (PTU), 1-Phenyl-2-thiourea]
embryo pigmentation, % vs. control [1]: 36.00%

Compound: O=c1cc(-c2ccc(O)cc2)oc2c([C@@H]3O[C@H](CO)[C@@H](O)[C@H](O)[C@H]3O)c(O)cc(O)c12 [vitexin, Vitexin]
mechanism of action on α-glucosidase [2]: uncompetitive
TYR inhibition [3]: effective TYR inhibitors

TEAC (IC50 µg/mL) [4]: 13.08 ± 0.02 µg/mL
Compound: Cc1c(C)c2c(c(C)c1O)CCC(C)(C(=O)O)O2 (stereo not shown) [Trolox]

Compound: O=c1c(O[C@@H]2O[C@H](CO)[C@H](O)[C@H](O)[C@H]2O)c(-c2ccc(O)c(O)c2)oc2cc(O)cc(O)c12 [hyperoside, Hyperoside]
manner of α-amylase inhibition [5]: competitive
TYR inhibition [3]: effective TYR inhibitors

DPPH (IC50 µg/mL) [6]: 16.95 ± 1.20 µg/mL
Compound: O=C1O[C@H]([C@@H](O)CO)C(O)=C1O [Ascorbic acid]
